Conditions in all cases: 72 h
Assay [1] concerns U2OS. As to the kind of experiment: drug sensitivity score (DSS) for viability; higher = more toxic; extreme values may be limits of the assay.
The subject of assay [2] is Vero E6. Described as above.
In assay [3] the test system is Calu-3. The assay is described as above.
Assay [4] relates to Caco-2. The assay is described as above.
The subject of assay [5] is HepG2. The assay is described as above.
In assay [6] the test system is U2OS. Nature of the assay: relative viability EC50 (midpoint between 100% and the lowest measured viability); higher = less toxic.
The subject of assay [7] is Calu-3. The description is as above.
The subject of assay [8] is HepG2. Described as above.
The test system of assay [9] is U2OS. Nature of the assay: cell viability relative to DMSO; higher = less toxic.
Assay [10] has as its system Vero E6. The description is as above.
The subject of assay [11] is Calu-3. Described as above.
Assay [12] relates to Caco-2. Described as above.
In assay [13] the test system is HepG2. The description is as above.
For assay [14], the system named is Vero E6. Nature of the assay: relative viability EC50 (midpoint between 100% and the lowest measured viability); higher = less toxic.

One may read the cell viability as a read-out of living cells in per cent, often relative to untreated cells.

Consider `C=CC(=O)Nc1cc2c(Nc3ccc(F)c(Cl)c3)ncnc2cc1OCCCN1CCOCC1` [canertinib], for which the drug sensitivity score with U2OS [1] turned out to be 0; in the assay with Vero E6 [2] it was 7.8; with Calu-3 [3], 14.8; with Caco-2 [4], 5.4; in the assay with HepG2 [5] it was 0. Moreover, the “relative viability EC50” value in the assay with U2OS [6] is greater than 10000 nM; with Calu-3 [7], 132 nM; with HepG2 [8], greater than 10000 nM. Moreover, the cell viability in the assay on U2OS [9] (1 nM) was 97.1%; in the assay on U2OS [9] (10 nM), 98.5%; with U2OS [9] (100 nM), 93.1%; in the assay with U2OS [9] (1000 nM), 96.1%; in the assay on U2OS [9] (10000 nM), 89.9%; with Vero E6 [10] (1 nM), 98.5%. In addition, the cell viability worked out at 93.1% in the assay on Vero E6 [10] (10 nM); 86.3% with Vero E6 [10] (100 nM); 65.6% in the assay with Vero E6 [10] (1000 nM); 51% in the assay with Vero E6 [10] (10000 nM); 100% in the assay on Calu-3 [11] (1 nM); 89.8% in the assay with Calu-3 [11] (10 nM). Moreover, the cell viability in the assay with Calu-3 [11] (100 nM) came out at 70.2%; in the assay on Calu-3 [11] (1000 nM), 41.2%; in the assay with Calu-3 [11] (10000 nM) it was 30.1%; in the assay on Caco-2 [12] (1 nM), 91.7%; in the assay on Caco-2 [12] (10 nM), 90.3%; in the assay on Caco-2 [12] (100 nM), 81.6%. For the same compound, the cell viability with Caco-2 [12] (1000 nM) was 81.5%; in the assay with Caco-2 [12] (10000 nM), 69.5%; in the assay with HepG2 [13] (1 nM), 105%; in the assay with HepG2 [13] (10 nM), 97.6%; with HepG2 [13] (100 nM) it was 105%; in the assay with HepG2 [13] (1000 nM), 95.5%. The cell viability with HepG2 [13] (10000 nM) is 90.5%.

As to `CN(C)CCCC1(c2ccc(F)cc2)OCc2cc(C#N)ccc21` (centres undefined) [citalopram], the drug sensitivity score with U2OS [1], with Vero E6 [2], with Calu-3 [3] and in the assay with HepG2 [5] was 0 each time.

With `C=C(c1ccccc1OCc1cccc(Cl)c1)n1ccnc1` [croconazole], the drug sensitivity score in the assay with U2OS [1] was 0; in the assay with Vero E6 [2], 0; in the assay on Calu-3 [3], 0; in the assay on Caco-2 [4] it was 2.5; in the assay with HepG2 [5], 0. Besides, the “relative viability EC50” value in the assay on U2OS [6], in the assay on Vero E6 [14], in the assay on Calu-3 [7] and with HepG2 [8] was greater than 10000 nM each time. The cell viability in the assay with U2OS [9] (1 nM) is 96.2%; in the assay with U2OS [9] (10 nM), 104%; in the assay on U2OS [9] (100 nM), 93.2%; in the assay on U2OS [9] (1000 nM), 103%; with U2OS [9] (10000 nM), 90%; in the assay on Vero E6 [10] (1 nM), 102%. Moreover, the cell viability turned out to be 97% with Vero E6 [10] (10 nM); 112% with Vero E6 [10] (100 nM); 107% in the assay with Vero E6 [10] (1000 nM); 105% in the assay with Vero E6 [10] (10000 nM); 94.4% with Calu-3 [11] (1 nM); 104% in the assay with Calu-3 [11] (10 nM). Moreover, the cell viability with Calu-3 [11] (100 nM) is 97.5%; in the assay with Calu-3 [11] (1000 nM), 93.1%; in the assay on Calu-3 [11] (10000 nM), 92.1%; in the assay on Caco-2 [12] (1 nM) it was 102%; in the assay on Caco-2 [12] (10 nM) it was 104%; with Caco-2 [12] (100 nM), 90.9%. Also, the cell viability in the assay with Caco-2 [12] (1000 nM) worked out at 87.8%; with Caco-2 [12] (10000 nM) it was 69.6%; in the assay on HepG2 [13] (1 nM) it was 102%; in the assay with HepG2 [13] (10 nM), 101%; in the assay with HepG2 [13] (100 nM), 102%; in the assay with HepG2 [13] (1000 nM), 110%. Also, the cell viability with HepG2 [13] (10000 nM) was 88%.

For `COc1ccc(-c2cc(=O)c3c(O)cc(O[C@@H]4O[C@H](CO[C@@H]5O[C@@H](C)[C@H](O)[C@@H](O)[C@H]5O)[C@@H](O)[C@H](O)[C@H]4O)cc3o2)cc1O` [diosmin], the drug sensitivity score with U2OS [1], in the assay with Vero E6 [2], with Calu-3 [3] and in the assay on HepG2 [5] was 0 each time.

As to `CN1CCN(c2ccc3nc(-c4c(N)c5c(F)cccc5[nH]c4=O)[nH]c3c2)CC1` [dovitinib], the drug sensitivity score in the assay with U2OS [1] came to 3.4; with Vero E6 [2] it was 7.5; in the assay with Calu-3 [3], 0.9; with Caco-2 [4], 3.6; with HepG2 [5], 8.7. In addition, the “relative viability EC50” value in the assay on U2OS [6] was 2880 nM; in the assay with Vero E6 [14], 794 nM; in the assay on Calu-3 [7] it was greater than 10000 nM; in the assay with HepG2 [8], 924 nM. Moreover, the cell viability in the assay with U2OS [9] (1 nM) is 99%; in the assay on U2OS [9] (10 nM), 99.5%; with U2OS [9] (100 nM) it was 93.5%; in the assay on U2OS [9] (1000 nM) it was 97.8%; in the assay on U2OS [9] (10000 nM), 42.3%; in the assay on Vero E6 [10] (1 nM) it was 97.4%. Moreover, the cell viability was found to be 96.5% in the assay with Vero E6 [10] (10 nM); 99.6% in the assay with Vero E6 [10] (100 nM); 63.2% with Vero E6 [10] (1000 nM); 42.1% in the assay on Vero E6 [10] (10000 nM); 93.8% with Calu-3 [11] (1 nM); 97.7% with Calu-3 [11] (10 nM). Besides, the cell viability in the assay on Calu-3 [11] (100 nM) was 98.6%; with Calu-3 [11] (1000 nM) it was 93.7%; in the assay with Calu-3 [11] (10000 nM) it was 81.9%; in the assay on Caco-2 [12] (1 nM) it was 98.4%; in the assay with Caco-2 [12] (10 nM), 101%; in the assay with Caco-2 [12] (100 nM) it was 87.5%. Besides, the cell viability in the assay with Caco-2 [12] (1000 nM) was determined as 85.7%; with Caco-2 [12] (10000 nM), 61.8%; with HepG2 [13] (1 nM), 115%; with HepG2 [13] (10 nM), 96.8%; with HepG2 [13] (100 nM), 102%; in the assay with HepG2 [13] (1000 nM) it was 60.8%. The cell viability in the assay on HepG2 [13] (10000 nM) amounted to 28.8%.

The values are drawn from the supplement of paper PMC13380429.
